# In the SangsterLogP compilation:
# Experiment: method code SF-AS, from PMID: 6889867
# Settings: not given
row,Compound,logP
1,CCOC(=O)c1c(OC)cc(Cc2cnc(N)nc2N)cc1OC,1.25
2,COc1cc(Cc2cnc(N)nc2N)ccc1OCc1ccccc1,2.66
3,COc1cc(Cc2cnc(N)nc2N)cc(OC)c1C(=O)CS(C)(=O)=O,-0.31
4,CNc1cc(Cc2cnc(N)nc2N)cc(N(C)C(C)=O)c1C,0.53
5,COc1cc(Cc2cnc(N)nc2N)cc(OC)c1CO,0.42
6,CN(C)c1cc(Cc2cnc(N)nc2N)cc(N(C)C)c1,1.6
7,COc1cc(Cc2cnc(N)nc2N)cc(OCc2ccccc2)c1OC,2.37
8,COc1ccc(Cc2cnc(N)nc2N)cc1OCc1ccccc1,2.44
9,CCCCOc1cc(Cc2cnc(N)nc2N)c(C)cc1OC,2.78
10,COc1cc(Cc2cnc(N)nc2N)cc(C)c1OC,1.62
11,COc1cc(OC)c(OC)cc1Cc1cnc(N)nc1N,1.17
12,COC(=O)COc1c(OC)cc(Cc2cnc(N)nc2N)cc1OC,0.55
13,COc1ccc(Cc2cnc(N)nc2N)cc1OC,0.97
14,CCOc1c(OC)cc(Cc2cnc(N)nc2N)cc1OC,1.34
15,COc1cc(Cc2cnc(N)nc2N)cc(OC)c1C(=O)OC(C)C,1.72
16,COc1cc(Cc2cnc(N)nc2N)cc(O)c1O,-0.31
17,COc1cc(C)c(Cc2cnc(N)nc2N)cc1OCc1ccccc1,2.69
18,CCSc1c(OC)cc(Cc2cnc(N)nc2N)cc1OC,1.79
19,COc1cc(Cc2cnc(N)nc2N)ccc1O,0.64

row,Compound,logP
1,COc1cc(Cc2cnc(N)nc2N)cc(OC)c1OCc1ccccc1,2.46
2,Cc1c(N(C)C)cc(Cc2cnc(N)nc2N)cc1N(C)C,2.06
3,C=C(C)c1c(OC)cc(Cc2cnc(N)nc2N)cc1OCC,2.65
4,COc1cc(C)c(Cc2cnc(N)nc2N)cc1OC,1.23
5,COc1cc(Cc2cnc(N)nc2N)cc(OC)c1SC,1.54
6,COc1cc(Cc2cnc(N)nc2N)cc(OC)c1Cl,1.87
7,COc1c(O)cc(Cc2cnc(N)nc2N)cc1O,-0.04
8,COc1cc(Cc2cnc(N)nc2N)cc(OC)c1OCC#N,0.72
9,CCOc1cc(Cc2cnc(N)nc2N)cc(OCC)c1C(=O)CS(C)(=O)=O,0.79
10,COc1c(C)cc(Cc2cnc(N)nc2N)cc1C,2.19
11,COc1cc(Cc2cnc(N)nc2N)cc(OC)c1C(=O)N(C)C,-0.21
12,COc1cc(Cc2cnc(N)nc2N)cc(OC)c1O,0.37
13,COc1cccc(Cc2cnc(N)nc2N)c1,1.54
14,Nc1ccc(Cc2cnc(N)nc2N)cc1,0.22
15,COc1cc(Cc2cnc(N)nc2N)ccc1C(C)(C)O,1.38
16,COCCOc1c(OC)cc(Cc2cnc(N)nc2N)cc1OC,0.56
17,COCc1c(OC)cc(Cc2cnc(N)nc2N)cc1OC,1.19
18,COc1cc(Cc2cnc(N)nc2N)cc(OC)c1-n1cccc1,1.78
19,CNc1cc(Cc2cnc(N)nc2N)cc(NC)c1,0.44

# Same assay, conditions: pH 7.4
row,Compound,logD
1,COc1cc(Cc2cnc(N)nc2N)cc(OC)c1C(C)(C)O,1.3
2,COc1ccc(Cc2cnc(N)nc2N)cc1O,0.55
3,COc1cc(Cc2cnc(N)nc2N)ccc1C,1.95
4,CNc1cc(Cc2cnc(N)nc2N)cc(N(C)C)c1OC,1.56
5,COc1cc(Cc2cnc(N)nc2N)cc(Cl)c1OC,1.73
6,COc1cc(Cc2cnc(N)nc2N)cc(OC)c1I,2.21
7,COc1cc(Cc2cnc(N)nc2N)c(Cl)c(OC)c1,1.94
8,COC(=O)c1c(OC)cc(Cc2cnc(N)nc2N)cc1OC,0.76
9,COc1cc(Cc2cnc(N)nc2N)cc(OC)c1C#N,1.2
10,COc1cc(Cc2cnc(N)nc2N)cc(OC)c1C(C)C,3.18
11,COc1cncc(OC)c1Cc1cnc(N)nc1N,1.48
12,COc1cc(Cc2cnc(N)nc2N)cc(OC)c1N,0.6
13,CCOc1cc(Cc2cnc(N)nc2N)cc(OCC)c1-n1cccc1,2.74
14,COc1cc(Cc2cnc(N)nc2N)cc(OCc2ccccc2)c1OCc1ccccc1,3.9
15,Nc1ncc(Cc2ccc3c(c2)OCO3)c(N)n1,1.3
16,Nc1ncc(Cc2cc3c(cc2Br)OCO3)c(N)n1,2.3
17,CCOc1cc(Cc2cnc(N)nc2N)cc(OCC)c1C(C)=O,1.85
18,Nc1ncc(Cc2cc(Cl)c(Cl)cc2Cl)c(N)n1,3.6

row,Compound,logD
1,COc1cc(OC)c(Cl)c(Cc2cnc(N)nc2N)c1Cl,2.32
2,CCOc1cc(Cc2cnc(N)nc2N)cc(OCC)c1C(C)(C)O,2.3
3,CCOc1cc(Cc2cnc(N)nc2N)cc(OC)c1C(C)(C)O,1.92
4,CCOc1cc(Cc2cnc(N)nc2N)cc(OCC)c1N,1.5
5,COc1ccc(Cc2cnc(N)nc2N)c(OC)n1,1.83
6,COc1cc(Cc2cnc(N)nc2N)cc(OC)c1Br,1.82
7,CCOC(=O)c1c(OCC)cc(Cc2cnc(N)nc2N)cc1OCC,2.09
8,C=CCc1c(OCC)cc(Cc2cnc(N)nc2N)cc1OCC,2.89
9,COc1cc(Cc2cnc(N)nc2N)ccc1SC,1.73
10,Nc1ncc(Cc2cc(Cl)c(Cl)c(Cl)c2)c(N)n1,3.45
11,COc1cc(Cc2cnc(N)nc2N)cc(OC)c1C(C)=O,0.91
12,COc1cc(Cc2cnc(N)nc2N)cc(I)c1OC,2.14
13,O=C1CN=C(c2ccccc2F)c2cc(I)ccc2N1CC(O)CO (centres undefined),1.81
14,COc1c(N(C)C)cc(Cc2cnc(N)nc2N)cc1N(C)C,1.86
15,Cc1cc2c(cc1Cc1cnc(N)nc1N)OCO2,1.7
16,COc1cc(Cc2cnc(N)nc2N)cc2c1OCO2,1.19
17,COc1c(OCc2ccccc2)cc(Cc2cnc(N)nc2N)cc1OCc1ccccc1,3.7

# Experiment: method code SF, from PMID: 6889867
# Settings: pH 7.4
row,Compound,logD
1,COc1c(Cl)cc(Cc2cnc(N)nc2N)cc1Cl,2.59
